Measurements: ChEMBL document CHEMBL5465560, “Selectivity Literature for EUbOPEN Chemogenomic Library” (2024)

Tests used:
[1] = molecular target: Ribosomal protein S6 kinase alpha-1 (Homo sapiens, UniProt Q15418); settings: at 10 µM
[2] = molecular target: Serine/threonine-protein kinase MRCK gamma (Homo sapiens) (UniProt Q6DT37); assay: Selectivity interaction (KinomeScan (DiscoverX)) EUB0000607a CDC42BPG; settings: at 10 µM
[3] = molecular target: T1, MAP kinase-activated protein kinase 5 (Homo sapiens) (UniProt Q8IW41); assay: Selectivity interaction (SelectScreen profiling (Invitrogen)) EUB0000607a MAPKAPK5; settings: at 2 µM
T1 sequence (whole entry): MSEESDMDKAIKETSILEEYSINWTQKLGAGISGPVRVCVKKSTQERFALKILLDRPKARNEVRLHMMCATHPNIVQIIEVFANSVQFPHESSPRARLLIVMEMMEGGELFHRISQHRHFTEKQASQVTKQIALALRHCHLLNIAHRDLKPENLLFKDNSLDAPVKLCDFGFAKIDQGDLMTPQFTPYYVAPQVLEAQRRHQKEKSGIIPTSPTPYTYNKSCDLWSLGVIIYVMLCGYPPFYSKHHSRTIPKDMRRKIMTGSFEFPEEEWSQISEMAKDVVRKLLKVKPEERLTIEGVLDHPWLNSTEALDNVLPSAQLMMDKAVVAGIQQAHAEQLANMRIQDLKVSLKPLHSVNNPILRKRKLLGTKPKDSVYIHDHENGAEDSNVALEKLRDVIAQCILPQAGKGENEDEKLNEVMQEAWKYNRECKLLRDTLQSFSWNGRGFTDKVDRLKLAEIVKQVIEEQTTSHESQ

[4] = molecular target: Dual specificity protein kinase CLK1 (Homo sapiens, UniProt P49759); assay: Selectivity interaction (KinomeScan (DiscoverX)) EUB0000229b CLK1; settings: at 10 µM
[5] = molecular target: Casein kinase I isoform gamma-1 (Homo sapiens) (UniProt Q9HCP0); assay: Selectivity interaction (KinomeScan (DiscoverX)) EUB0000229b CSNK1G1; settings: at 10 µM
[6] = molecular target: T2, Ephrin type-B receptor 6 (Homo sapiens) (UniProt O15197); assay: Selectivity interaction (KinomeScan (DiscoverX)) EUB0000229b EPHB6; settings: at 10 µM
T2 sequence (whole entry): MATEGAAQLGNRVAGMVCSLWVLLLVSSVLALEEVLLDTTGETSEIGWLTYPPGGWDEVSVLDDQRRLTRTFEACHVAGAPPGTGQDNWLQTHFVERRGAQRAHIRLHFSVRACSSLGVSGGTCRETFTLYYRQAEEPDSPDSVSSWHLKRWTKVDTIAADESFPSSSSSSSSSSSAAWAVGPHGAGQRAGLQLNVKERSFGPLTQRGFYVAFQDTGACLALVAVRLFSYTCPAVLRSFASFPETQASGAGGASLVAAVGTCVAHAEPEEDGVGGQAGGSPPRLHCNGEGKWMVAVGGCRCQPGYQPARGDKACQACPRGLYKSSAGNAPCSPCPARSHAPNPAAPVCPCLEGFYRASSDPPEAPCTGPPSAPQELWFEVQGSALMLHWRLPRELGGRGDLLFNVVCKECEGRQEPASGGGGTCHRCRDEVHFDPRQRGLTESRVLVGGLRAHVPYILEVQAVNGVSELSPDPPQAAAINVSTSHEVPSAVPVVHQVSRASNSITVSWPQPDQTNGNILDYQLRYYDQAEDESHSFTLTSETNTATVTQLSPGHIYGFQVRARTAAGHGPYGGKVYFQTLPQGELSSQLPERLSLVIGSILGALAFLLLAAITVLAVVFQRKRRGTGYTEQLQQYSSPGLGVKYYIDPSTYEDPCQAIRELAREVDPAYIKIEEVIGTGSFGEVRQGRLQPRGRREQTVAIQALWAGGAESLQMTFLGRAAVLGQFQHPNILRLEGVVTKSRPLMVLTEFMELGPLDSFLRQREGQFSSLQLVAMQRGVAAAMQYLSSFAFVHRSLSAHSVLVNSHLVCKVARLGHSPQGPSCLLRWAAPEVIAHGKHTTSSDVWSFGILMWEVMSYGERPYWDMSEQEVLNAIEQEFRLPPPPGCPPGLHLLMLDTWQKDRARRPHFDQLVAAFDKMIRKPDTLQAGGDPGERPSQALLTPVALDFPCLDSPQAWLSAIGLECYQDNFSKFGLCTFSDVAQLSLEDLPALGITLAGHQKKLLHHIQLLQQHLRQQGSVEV

[7] = molecular target: Serine/threonine-protein kinase SIK2 (Homo sapiens) (UniProt Q9H0K1); assay: Selectivity interaction (KinomeScan (DiscoverX)) EUB0000229b SIK2; settings: at 10 µM
[8] = system: Receptor-type tyrosine-protein kinase FLT3 (Homo sapiens), P36888 [UNDEFINED MUTATION]; assay: Selectivity interaction (KinomeScan (DiscoverX)) EUB0000695a FLT3; settings: at 100 nM
[9] = molecular target: T3, Serine/threonine-protein kinase RIO1 (Homo sapiens) (UniProt Q9BRS2); assay: Selectivity interaction (KinomeScan (DiscoverX)) EUB0000695a RIOK1; settings: at 100 nM
T3 sequence (whole entry): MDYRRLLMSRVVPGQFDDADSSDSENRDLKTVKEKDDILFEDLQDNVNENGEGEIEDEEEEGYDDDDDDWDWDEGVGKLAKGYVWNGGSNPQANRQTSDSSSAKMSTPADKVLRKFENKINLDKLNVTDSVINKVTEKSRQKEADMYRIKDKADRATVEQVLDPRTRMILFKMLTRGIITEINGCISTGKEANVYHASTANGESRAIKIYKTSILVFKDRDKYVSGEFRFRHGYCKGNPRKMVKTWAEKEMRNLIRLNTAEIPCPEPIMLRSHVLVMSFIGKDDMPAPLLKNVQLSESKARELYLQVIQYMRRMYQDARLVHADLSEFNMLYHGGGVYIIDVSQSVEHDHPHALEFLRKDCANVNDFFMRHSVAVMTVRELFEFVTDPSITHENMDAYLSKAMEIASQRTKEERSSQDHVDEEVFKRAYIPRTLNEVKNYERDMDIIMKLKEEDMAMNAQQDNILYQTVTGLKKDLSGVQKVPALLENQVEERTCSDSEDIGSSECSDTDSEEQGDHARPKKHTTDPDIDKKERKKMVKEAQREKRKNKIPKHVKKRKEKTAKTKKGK

Chain of Serine/threonine-protein kinase SIK2 (Homo sapiens) (Q9H0K1 whole entry, looked up): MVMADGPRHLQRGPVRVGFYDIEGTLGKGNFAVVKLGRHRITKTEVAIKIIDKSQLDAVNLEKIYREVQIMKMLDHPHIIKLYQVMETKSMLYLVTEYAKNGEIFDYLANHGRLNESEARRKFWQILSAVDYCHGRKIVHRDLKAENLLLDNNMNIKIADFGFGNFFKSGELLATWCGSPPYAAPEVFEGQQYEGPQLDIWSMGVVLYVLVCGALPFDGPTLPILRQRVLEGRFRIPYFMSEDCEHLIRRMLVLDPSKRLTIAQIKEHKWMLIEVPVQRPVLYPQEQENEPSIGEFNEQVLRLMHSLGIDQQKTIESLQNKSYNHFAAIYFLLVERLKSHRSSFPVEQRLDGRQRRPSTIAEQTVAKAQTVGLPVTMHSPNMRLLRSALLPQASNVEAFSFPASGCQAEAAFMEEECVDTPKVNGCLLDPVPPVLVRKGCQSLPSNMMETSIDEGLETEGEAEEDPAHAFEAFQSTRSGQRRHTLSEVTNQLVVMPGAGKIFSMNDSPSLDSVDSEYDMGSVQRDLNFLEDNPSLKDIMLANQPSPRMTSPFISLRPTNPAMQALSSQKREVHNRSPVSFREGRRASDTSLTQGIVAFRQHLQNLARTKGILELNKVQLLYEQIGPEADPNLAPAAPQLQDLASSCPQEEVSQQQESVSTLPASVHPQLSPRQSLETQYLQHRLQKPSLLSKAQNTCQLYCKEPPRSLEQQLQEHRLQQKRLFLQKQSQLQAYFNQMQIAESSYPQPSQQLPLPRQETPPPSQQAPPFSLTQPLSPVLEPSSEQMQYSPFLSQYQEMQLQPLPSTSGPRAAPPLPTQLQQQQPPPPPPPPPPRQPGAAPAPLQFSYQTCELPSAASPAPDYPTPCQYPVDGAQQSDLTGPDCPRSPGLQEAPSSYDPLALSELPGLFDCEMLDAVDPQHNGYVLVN
Chain of Ribosomal protein S6 kinase alpha-1 (Q15418 whole entry): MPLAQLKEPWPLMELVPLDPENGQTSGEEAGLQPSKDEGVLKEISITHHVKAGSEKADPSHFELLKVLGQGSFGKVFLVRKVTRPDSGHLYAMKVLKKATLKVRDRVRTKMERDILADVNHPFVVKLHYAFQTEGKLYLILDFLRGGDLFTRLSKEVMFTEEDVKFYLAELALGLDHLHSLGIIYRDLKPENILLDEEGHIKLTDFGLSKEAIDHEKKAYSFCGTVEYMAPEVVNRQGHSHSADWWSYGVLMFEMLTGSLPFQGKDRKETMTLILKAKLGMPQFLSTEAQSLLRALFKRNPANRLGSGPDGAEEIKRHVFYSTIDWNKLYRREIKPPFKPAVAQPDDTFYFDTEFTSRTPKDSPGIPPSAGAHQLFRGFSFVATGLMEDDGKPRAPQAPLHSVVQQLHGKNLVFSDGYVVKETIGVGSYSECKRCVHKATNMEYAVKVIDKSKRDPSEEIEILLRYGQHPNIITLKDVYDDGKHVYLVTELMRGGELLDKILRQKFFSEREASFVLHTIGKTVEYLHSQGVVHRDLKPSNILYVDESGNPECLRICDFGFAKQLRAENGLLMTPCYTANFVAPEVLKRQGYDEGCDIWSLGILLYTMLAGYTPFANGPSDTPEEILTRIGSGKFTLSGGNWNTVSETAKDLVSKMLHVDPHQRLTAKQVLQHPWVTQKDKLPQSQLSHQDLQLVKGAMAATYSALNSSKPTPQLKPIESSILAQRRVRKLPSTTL
Chain of Dual specificity protein kinase CLK1 (P49759 whole entry, looked up, canonical isoform): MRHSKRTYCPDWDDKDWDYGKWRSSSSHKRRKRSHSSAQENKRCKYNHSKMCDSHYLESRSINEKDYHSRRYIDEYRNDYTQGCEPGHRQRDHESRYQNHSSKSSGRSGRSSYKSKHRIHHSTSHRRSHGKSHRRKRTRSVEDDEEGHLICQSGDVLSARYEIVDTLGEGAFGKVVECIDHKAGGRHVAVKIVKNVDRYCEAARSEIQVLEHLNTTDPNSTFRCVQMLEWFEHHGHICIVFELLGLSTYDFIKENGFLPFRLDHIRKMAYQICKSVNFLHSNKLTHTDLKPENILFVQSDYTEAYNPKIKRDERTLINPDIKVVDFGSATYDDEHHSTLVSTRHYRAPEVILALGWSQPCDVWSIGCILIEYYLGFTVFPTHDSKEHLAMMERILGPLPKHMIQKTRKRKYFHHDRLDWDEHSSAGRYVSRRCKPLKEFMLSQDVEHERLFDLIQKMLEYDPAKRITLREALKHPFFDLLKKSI
Chain of Serine/threonine-protein kinase MRCK gamma (Homo sapiens) (Q6DT37 whole entry): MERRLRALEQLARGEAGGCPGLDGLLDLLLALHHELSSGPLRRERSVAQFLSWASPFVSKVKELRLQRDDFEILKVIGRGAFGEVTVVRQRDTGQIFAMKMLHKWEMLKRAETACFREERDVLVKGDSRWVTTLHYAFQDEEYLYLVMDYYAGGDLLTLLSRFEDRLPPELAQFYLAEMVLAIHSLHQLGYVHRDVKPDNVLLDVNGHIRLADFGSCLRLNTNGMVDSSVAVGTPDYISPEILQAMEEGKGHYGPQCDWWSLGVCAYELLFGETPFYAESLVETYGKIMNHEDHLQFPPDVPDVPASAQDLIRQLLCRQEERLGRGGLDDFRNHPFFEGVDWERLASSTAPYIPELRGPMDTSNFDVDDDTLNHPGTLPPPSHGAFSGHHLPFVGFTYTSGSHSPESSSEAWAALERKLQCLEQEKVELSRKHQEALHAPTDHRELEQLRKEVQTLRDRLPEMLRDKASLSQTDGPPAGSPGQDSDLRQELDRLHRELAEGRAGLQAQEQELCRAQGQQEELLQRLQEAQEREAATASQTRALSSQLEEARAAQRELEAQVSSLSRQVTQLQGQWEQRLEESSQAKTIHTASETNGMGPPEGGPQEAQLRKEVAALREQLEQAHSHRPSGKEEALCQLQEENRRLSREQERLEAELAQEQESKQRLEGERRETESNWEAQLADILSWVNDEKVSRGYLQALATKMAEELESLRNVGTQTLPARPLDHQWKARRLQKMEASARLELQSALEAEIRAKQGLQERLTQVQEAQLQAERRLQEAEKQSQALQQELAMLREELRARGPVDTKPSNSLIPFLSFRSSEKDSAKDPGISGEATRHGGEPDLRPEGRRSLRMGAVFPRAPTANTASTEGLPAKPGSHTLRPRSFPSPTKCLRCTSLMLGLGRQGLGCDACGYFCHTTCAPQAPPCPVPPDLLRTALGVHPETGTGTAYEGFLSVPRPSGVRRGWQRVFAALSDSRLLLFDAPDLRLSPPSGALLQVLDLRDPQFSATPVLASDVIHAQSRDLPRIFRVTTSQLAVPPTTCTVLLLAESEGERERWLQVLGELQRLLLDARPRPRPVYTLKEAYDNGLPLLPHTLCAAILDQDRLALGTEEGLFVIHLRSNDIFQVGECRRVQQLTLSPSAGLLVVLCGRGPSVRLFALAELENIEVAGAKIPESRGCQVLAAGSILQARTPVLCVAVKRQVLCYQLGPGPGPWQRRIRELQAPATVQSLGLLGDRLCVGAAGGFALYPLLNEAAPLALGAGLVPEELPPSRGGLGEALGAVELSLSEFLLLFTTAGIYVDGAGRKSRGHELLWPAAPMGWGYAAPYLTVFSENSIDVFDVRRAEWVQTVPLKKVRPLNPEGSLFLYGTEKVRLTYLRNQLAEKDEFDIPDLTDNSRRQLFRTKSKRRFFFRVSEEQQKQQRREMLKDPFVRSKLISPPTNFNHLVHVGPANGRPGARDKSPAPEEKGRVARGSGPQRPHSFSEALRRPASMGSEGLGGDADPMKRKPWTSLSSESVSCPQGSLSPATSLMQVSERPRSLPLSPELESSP
Chain of Receptor-type tyrosine-protein kinase FLT3 (Homo sapiens), P36888 [UNDEFINED MUTATION] (P36888 whole entry, looked up, change not shown): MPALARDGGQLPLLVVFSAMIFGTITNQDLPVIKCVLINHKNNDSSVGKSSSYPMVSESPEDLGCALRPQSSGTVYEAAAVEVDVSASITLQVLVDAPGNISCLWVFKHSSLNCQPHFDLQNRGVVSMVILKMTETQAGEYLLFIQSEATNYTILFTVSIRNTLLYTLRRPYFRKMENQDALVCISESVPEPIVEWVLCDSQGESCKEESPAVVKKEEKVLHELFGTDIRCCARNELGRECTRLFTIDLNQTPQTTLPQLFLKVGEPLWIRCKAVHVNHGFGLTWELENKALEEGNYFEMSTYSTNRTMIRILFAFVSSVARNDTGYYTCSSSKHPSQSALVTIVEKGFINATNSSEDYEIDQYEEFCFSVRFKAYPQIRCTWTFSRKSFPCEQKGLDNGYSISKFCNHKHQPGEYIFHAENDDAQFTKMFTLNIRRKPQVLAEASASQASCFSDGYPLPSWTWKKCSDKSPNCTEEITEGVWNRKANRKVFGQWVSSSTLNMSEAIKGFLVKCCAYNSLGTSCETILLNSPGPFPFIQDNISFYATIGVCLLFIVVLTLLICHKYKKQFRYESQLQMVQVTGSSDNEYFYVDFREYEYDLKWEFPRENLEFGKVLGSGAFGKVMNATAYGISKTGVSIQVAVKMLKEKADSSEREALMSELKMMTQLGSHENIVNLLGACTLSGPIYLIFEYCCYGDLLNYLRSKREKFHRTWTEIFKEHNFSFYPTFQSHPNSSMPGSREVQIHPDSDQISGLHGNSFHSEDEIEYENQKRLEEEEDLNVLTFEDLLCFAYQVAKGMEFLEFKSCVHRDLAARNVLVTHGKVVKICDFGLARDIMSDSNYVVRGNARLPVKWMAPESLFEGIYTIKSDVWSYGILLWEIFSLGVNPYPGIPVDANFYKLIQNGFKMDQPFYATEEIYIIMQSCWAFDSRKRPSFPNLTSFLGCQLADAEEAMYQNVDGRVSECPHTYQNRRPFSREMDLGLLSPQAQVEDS

## CCN(CC)CCCCNc1ncc2cc(-c3cc(OC)cc(OC)c3)c(NC(=O)NC(C)(C)C)nc2n1
[1]
  % of control: 100%

## CNC(=O)Nc1ccc(-c2nc(N3CC4CCC(C3)O4)c3cnn(C4CCC5(CC4)OCCO5)c3n2)cc1
[2]
  % of control: 84%
[3]
  % of inhibition: 5%

## COc1cc(N(C)c2ccnc3ccc(C(F)(F)F)cc23)cc(OC)c1OC
[4]
  % binding: 84%
[5]
  % binding: 76%
[6]
  % binding: 81%
[7]
  % binding: 98%

## Cc1cc(F)c(C(=O)Nc2cccc(-c3nncn3C(C)C)n2)cc1-n1cnc(C2CC2)c1
[8]
  % of control: 76%
[9]
  % of control: 100%
